Assay in all cases: relative viability (nuclei count vs DMSO), 5 days (fraction); higher = more cells survive
Compound in the experiment “Crenolanib + Crizotinib”: CC1(COc2ccc3c(c2)ncn3-c2ccc3cccc(N4CCC(N)CC4)c3n2)COC1 [Crenolanib] + C[C@@H](Oc1cc(-c2cnn(C3CCNCC3)c2)cnc1N)c1c(Cl)ccc(F)c1Cl [Crizotinib] (partner 1 µM)
The gist of the method:
(§1)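 After 5 days of treatment, lung cancer cells in 1536-well plates were fixed and stained in a single step (final 0.05% Triton X-100, 1% formaldehyde, 1 ug/ml Hoechst) and their nuclei counted on 4× images. Treatment had been applied by pin tool the day after seeding as one drug alone or as a fixed anchor-drug dose with five library-drug doses (not always all listed) in √10 steps. Relative viability is the nuclei count of treated wells divided by that of vehicle wells, and values are medians of duplicate plates.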

Compound in the experiment “Crenolanib + Bortezomib”: CC1(COc2ccc3c(c2)ncn3-c2ccc3cccc(N4CCC(N)CC4)c3n2)COC1 [Crenolanib] + CC(C)C[C@H](NC(=O)[C@H](Cc1ccccc1)NC(=O)c1cnccn1)B(O)O [Bortezomib] (partner 0.002 µM)
The gist of the method: as §1

Compound in the experiment “Tivantinib + Bortezomib”: O=C1NC(=O)[C@@H](c2cn3c4c(cccc24)CCC3)[C@@H]1c1c[nH]c2ccccc12 [Tivantinib] + CC(C)C[C@H](NC(=O)[C@H](Cc1ccccc1)NC(=O)c1cnccn1)B(O)O [Bortezomib] (partner 0.002 µM)
In a few lines:
as §1

Compound in the experiment “Tivantinib + AZD7762”: O=C1NC(=O)[C@@H](c2cn3c4c(cccc24)CCC3)[C@@H]1c1c[nH]c2ccccc12 [Tivantinib] + NC(=O)Nc1cc(-c2cccc(F)c2)sc1C(=O)N[C@H]1CCCNC1 [AZD7762] (partner 0.2 µM)
In a few lines: as §1

On to LOU-NH91, for which the relative viability came to 0.765 in the experiment with Crenolanib + Crizotinib (first compound 0.01 µM); 0.753 with Crenolanib + Crizotinib (first compound 0.03162 µM); 0.688 with Crenolanib + Crizotinib (first compound 0.1 µM); 0.722 with Crenolanib + Crizotinib (first compound 0.3162 µM); 0.729 with Crenolanib + Crizotinib (first compound 1 µM); 0.336 with Crenolanib + Bortezomib (first compound 0.01 µM). Moreover, the relative viability with Crenolanib + Bortezomib (first compound 0.03162 µM) is 0.474; with Crenolanib + Bortezomib (first compound 0.1 µM), 0.45; in the experiment with Crenolanib + Bortezomib (first compound 0.3162 µM), 0.49; with Crenolanib + Bortezomib (first compound 1 µM) it was 0.513; with Tivantinib + Bortezomib (first compound 0.01 µM) it was 0.479; in the experiment with Tivantinib + Bortezomib (first compound 0.03162 µM), 0.496. The relative viability was 0.522 with Tivantinib + Bortezomib (first compound 0.1 µM); 0.473 in the experiment with Tivantinib + Bortezomib (first compound 0.3162 µM); 0.784 in the experiment with Tivantinib + AZD7762 (first compound 0.01 µM); 0.719 with Tivantinib + AZD7762 (first compound 0.03162 µM); 0.702 with Tivantinib + AZD7762 (first compound 0.1 µM); 0.738 with Tivantinib + AZD7762 (first compound 0.3162 µM).

As for H3255, the relative viability is 1.07 with Crenolanib + Crizotinib (first compound 0.01 µM); 0.806 with Crenolanib + Crizotinib (first compound 0.03162 µM); 0.889 with Crenolanib + Crizotinib (first compound 0.1 µM); 0.85 in the experiment with Crenolanib + Crizotinib (first compound 0.3162 µM); 0.825 with Crenolanib + Crizotinib (first compound 1 µM); 0.89 with Crenolanib + Bortezomib (first compound 0.01 µM). For the same cell line, the relative viability was 0.543 with Crenolanib + Bortezomib (first compound 0.03162 µM); 0.765 with Crenolanib + Bortezomib (first compound 0.1 µM); 0.7 with Crenolanib + Bortezomib (first compound 0.3162 µM); 0.759 with Crenolanib + Bortezomib (first compound 1 µM); 0.812 in the experiment with Tivantinib + Bortezomib (first compound 0.01 µM); 0.884 with Tivantinib + Bortezomib (first compound 0.03162 µM). The relative viability with Tivantinib + Bortezomib (first compound 0.1 µM) turned out to be 0.723; with Tivantinib + AZD7762 (first compound 0.01 µM) it was 0.968; with Tivantinib + AZD7762 (first compound 0.03162 µM) it was 0.73; with Tivantinib + AZD7762 (first compound 0.1 µM), 0.902.

NCI-H1975: the relative viability with Crenolanib + Crizotinib (first compound 0.01 µM) is 1; in the experiment with Crenolanib + Crizotinib (first compound 0.03162 µM), 1.15; with Crenolanib + Crizotinib (first compound 0.1 µM), 0.978; with Crenolanib + Crizotinib (first compound 0.3162 µM), 1.03; in the experiment with Crenolanib + Crizotinib (first compound 1 µM) it was 0.892; with Crenolanib + Bortezomib (first compound 0.01 µM), 0.5. Also, the relative viability with Crenolanib + Bortezomib (first compound 0.03162 µM) is 0.39; with Crenolanib + Bortezomib (first compound 0.1 µM) it was 0.359; with Crenolanib + Bortezomib (first compound 0.3162 µM) it was 0.385; with Crenolanib + Bortezomib (first compound 1 µM), 0.295; with Tivantinib + Bortezomib (first compound 0.01 µM), 0.411; with Tivantinib + Bortezomib (first compound 0.03162 µM), 0.366. Also, the relative viability in the experiment with Tivantinib + Bortezomib (first compound 0.1 µM) is 0.442; with Tivantinib + Bortezomib (first compound 0.3162 µM) it was 0.405; in the experiment with Tivantinib + AZD7762 (first compound 0.01 µM), 0.734; with Tivantinib + AZD7762 (first compound 0.03162 µM) it was 0.667; with Tivantinib + AZD7762 (first compound 0.1 µM), 0.714.

Turning to NCI-H3122, the relative viability is 0.27 with Crenolanib + Crizotinib (first compound 0.01 µM); 0.288 with Crenolanib + Crizotinib (first compound 0.03162 µM); 0.298 with Crenolanib + Crizotinib (first compound 0.1 µM); 0.267 in the experiment with Crenolanib + Crizotinib (first compound 0.3162 µM); 0.321 with Crenolanib + Crizotinib (first compound 1 µM); 1.08 with Crenolanib + Bortezomib (first compound 0.01 µM). Besides, the relative viability with Crenolanib + Bortezomib (first compound 0.03162 µM) was determined as 1.01; with Crenolanib + Bortezomib (first compound 0.1 µM), 1.04; with Crenolanib + Bortezomib (first compound 0.3162 µM) it was 1.05; in the experiment with Crenolanib + Bortezomib (first compound 1 µM), 1.16; in the experiment with Tivantinib + Bortezomib (first compound 0.01 µM) it was 1.05; with Tivantinib + Bortezomib (first compound 0.03162 µM), 1.03. Besides, the relative viability was determined as 1.04 with Tivantinib + Bortezomib (first compound 0.1 µM); 0.995 with Tivantinib + Bortezomib (first compound 0.3162 µM); 1.05 in the experiment with Tivantinib + AZD7762 (first compound 0.01 µM); 1.07 with Tivantinib + AZD7762 (first compound 0.03162 µM); 0.761 in the experiment with Tivantinib + AZD7762 (first compound 0.1 µM); 0.923 in the experiment with Tivantinib + AZD7762 (first compound 0.3162 µM).

As to NCI-H441, the relative viability in the experiment with Crenolanib + Crizotinib (first compound 0.01 µM) turned out to be 0.684; in the experiment with Crenolanib + Crizotinib (first compound 0.03162 µM), 0.738; with Crenolanib + Crizotinib (first compound 0.1 µM) it was 0.56; with Crenolanib + Crizotinib (first compound 0.3162 µM), 0.772; with Crenolanib + Crizotinib (first compound 1 µM), 0.846; with Crenolanib + Bortezomib (first compound 0.01 µM), 0.29. The relative viability with Crenolanib + Bortezomib (first compound 0.1 µM) was 0.535; with Crenolanib + Bortezomib (first compound 0.3162 µM) it was 0.446; with Crenolanib + Bortezomib (first compound 1 µM), 0.557; in the experiment with Tivantinib + Bortezomib (first compound 0.01 µM), 0.525; in the experiment with Tivantinib + Bortezomib (first compound 0.03162 µM), 0.651; with Tivantinib + Bortezomib (first compound 0.3162 µM), 0.449. The relative viability in the experiment with Tivantinib + AZD7762 (first compound 0.01 µM) worked out at 1.04; in the experiment with Tivantinib + AZD7762 (first compound 0.03162 µM), 1.22; in the experiment with Tivantinib + AZD7762 (first compound 0.1 µM) it was 1.11; with Tivantinib + AZD7762 (first compound 0.3162 µM), 1.03.

For LC-2-ad, the relative viability with Crenolanib + Crizotinib (first compound 0.01 µM) is 0.439; in the experiment with Crenolanib + Crizotinib (first compound 0.03162 µM), 0.444; in the experiment with Crenolanib + Crizotinib (first compound 0.1 µM) it was 0.56; with Crenolanib + Crizotinib (first compound 0.3162 µM), 0.44; with Crenolanib + Crizotinib (first compound 1 µM), 0.486; with Crenolanib + Bortezomib (first compound 0.01 µM), 1.09. The relative viability with Crenolanib + Bortezomib (first compound 0.03162 µM) was 0.959; with Crenolanib + Bortezomib (first compound 0.1 µM), 0.98; with Crenolanib + Bortezomib (first compound 0.3162 µM) it was 1.18; with Crenolanib + Bortezomib (first compound 1 µM), 0.99; in the experiment with Tivantinib + Bortezomib (first compound 0.01 µM), 1.18; with Tivantinib + Bortezomib (first compound 0.03162 µM), 0.853. The relative viability worked out at 0.976 with Tivantinib + Bortezomib (first compound 0.1 µM); 1.08 with Tivantinib + Bortezomib (first compound 0.3162 µM); 0.776 with Tivantinib + AZD7762 (first compound 0.01 µM); 0.681 with Tivantinib + AZD7762 (first compound 0.03162 µM); 0.817 with Tivantinib + AZD7762 (first compound 0.1 µM); 0.758 in the experiment with Tivantinib + AZD7762 (first compound 0.3162 µM).

PC-14: the relative viability in the experiment with Crenolanib + Crizotinib (first compound 0.01 µM) stood at 0.902; with Crenolanib + Crizotinib (first compound 0.03162 µM) it was 0.93; in the experiment with Crenolanib + Crizotinib (first compound 0.1 µM), 0.825; with Crenolanib + Crizotinib (first compound 0.3162 µM), 0.966; in the experiment with Crenolanib + Crizotinib (first compound 1 µM), 1.03; with Crenolanib + Bortezomib (first compound 0.01 µM) it was 0.908. Further, the relative viability in the experiment with Crenolanib + Bortezomib (first compound 0.03162 µM) came to 0.809; in the experiment with Crenolanib + Bortezomib (first compound 0.1 µM), 0.785; with Crenolanib + Bortezomib (first compound 0.3162 µM) it was 0.995; in the experiment with Crenolanib + Bortezomib (first compound 1 µM) it was 0.948; with Tivantinib + Bortezomib (first compound 0.01 µM), 0.873; with Tivantinib + Bortezomib (first compound 0.03162 µM) it was 0.917. Moreover, the relative viability with Tivantinib + Bortezomib (first compound 0.1 µM) is 0.777; with Tivantinib + Bortezomib (first compound 0.3162 µM) it was 0.822; in the experiment with Tivantinib + AZD7762 (first compound 0.01 µM), 0.296; with Tivantinib + AZD7762 (first compound 0.03162 µM) it was 0.304; in the experiment with Tivantinib + AZD7762 (first compound 0.1 µM), 0.4; in the experiment with Tivantinib + AZD7762 (first compound 0.3162 µM) it was 0.226.

As for CAL-12T, the relative viability in the experiment with Crenolanib + Crizotinib (first compound 0.01 µM) turned out to be 0.66; in the experiment with Crenolanib + Crizotinib (first compound 0.03162 µM), 0.709; with Crenolanib + Crizotinib (first compound 0.1 µM) it was 0.704; in the experiment with Crenolanib + Crizotinib (first compound 0.3162 µM) it was 0.816; in the experiment with Crenolanib + Crizotinib (first compound 1 µM) it was 0.787; with Crenolanib + Bortezomib (first compound 0.01 µM), 1.05. Also, the relative viability in the experiment with Crenolanib + Bortezomib (first compound 0.03162 µM) was found to be 0.667; in the experiment with Crenolanib + Bortezomib (first compound 0.1 µM) it was 1.23; in the experiment with Crenolanib + Bortezomib (first compound 0.3162 µM), 1.02; in the experiment with Crenolanib + Bortezomib (first compound 1 µM) it was 0.789; with Tivantinib + Bortezomib (first compound 0.01 µM) it was 0.999; with Tivantinib + Bortezomib (first compound 0.03162 µM), 0.873. For the same cell line, the relative viability is 1.03 with Tivantinib + Bortezomib (first compound 0.1 µM); 0.854 with Tivantinib + Bortezomib (first compound 0.3162 µM); 0.563 in the experiment with Tivantinib + AZD7762 (first compound 0.01 µM); 0.603 with Tivantinib + AZD7762 (first compound 0.03162 µM); 0.574 with Tivantinib + AZD7762 (first compound 0.1 µM); 0.437 with Tivantinib + AZD7762 (first compound 0.3162 µM).

The record behind these values is the supplement of paper PMC10307832.
